The results in this text go back to ChEMBL document CHEMBL1201862, “PubChem BioAssay data set” (2004).

By GI50 is commonly meant the concentration that inhibits growth by half.

SMILES strings stand for the structures.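 Compound exposure: 48 hours, 5 concentrations, 96-well plates. GI50: concentration for 50% inhibition of growth.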 The source made the active and inactive calls. Cut-off read from the data, not from the text of the source: active = GI50 up to about 1.1 µM and inactive = higher. *1 amine or outer side, *2 acyl side, *3 side chain or, on linkers, in order; H or OH if unused. Where a SMILES comes first, the peptide text is derived from it. Bridges are numbered along the chain shown (N, C = ends). Roman numbers before positions name the chains, in order. [ ]: non-standard residue; d: D form. Actinocin(1to9) = Cc1c2oc3c(C)ccc(C(=O)[*:2])c3nc-2c(C(=O)[*:1])c(N)c1=O; NMeV = CN[CH](C(=O)O)C(C)C; Sar = CNCC(=O)O

Some test systems named below: A498; A549; ACHN; CAKI-1; DU-145; HCC 2998; HL-60; LOX IMVI; M14; MDA-MB-231; MDA-MB-435; NCI-H522; OVCAR-4; RPMI-8226; SK-MEL-28; SN12C; SNB-19; TK-10; U-251; UACC-257.
Assay in all cases: DTP human tumour cell line panel, 48 h

For the compound `CN1CCN(Cc2nc3cccc4c3c([n+]2[O-])-c2ccccc2-4)CC1`, the GI50 in the test with A498 was 15.8 µM (inactive); in the test on A549 it was 14.8 µM (inactive); with ACHN it was 12.2 µM (inactive); in the test with CAKI-1 it was 25.5 µM (inactive); with DU-145 it was 14.9 µM (inactive); in the test with HCC 2998 it was 53 µM (inactive). Besides, the GI50 in the test with HL-60 was 33.1 µM (inactive); with LOX IMVI it was 16.7 µM (inactive); with M14 it was 23.2 µM (inactive); in the test on MDA-MB-231, 15.8 µM (inactive); in the test on MDA-MB-435, 15.6 µM (inactive); with NCI-H522, 14.3 µM (inactive). For the same compound, the GI50 in the test on OVCAR-4 is 25.2 µM (inactive); in the test with RPMI-8226, 20.7 µM (inactive); in the test with SK-MEL-28, 31.7 µM (inactive); in the test with SN12C it was 11.7 µM (inactive); with SNB-19, 16.9 µM (inactive); in the test on TK-10 it was 43.5 µM (inactive). For the same compound, the GI50 in the test with U-251 was 20 µM (inactive); with UACC-257, 24.4 µM (inactive).
On to `CCCC(=O)O[C@H]1C=C2C[C@@]34SS[C@]5(CC6=C[C@H](OC(C)=O)[C@@H]7O[C@@H]7[C@H]6N5C3=O)C(=O)N4[C@@H]2[C@H]2O[C@H]21`, for which the GI50 in the test on A498 was 0.0279 µM (active); in the test with A549, 0.0311 µM (active); with ACHN, 0.0186 µM (active); in the test with CAKI-1, 0.0175 µM (active); in the test on DU-145, 0.0356 µM (active); with HCC 2998, 0.00923 µM (active). Besides, the GI50 with HL-60 was 0.0644 µM (active); in the test with LOX IMVI, 0.0208 µM (active); in the test on M14, 0.0129 µM (active); in the test with MDA-MB-231, 0.0254 µM (active); in the test on MDA-MB-435 it was 0.0127 µM (active); in the test on NCI-H522, < 0.005 µM (active). The GI50 in the test on OVCAR-4 was 0.0197 µM (active); with RPMI-8226, 0.00524 µM (active); in the test with SK-MEL-28 it was 0.0251 µM (active); in the test on SN12C it was 0.00567 µM (active); in the test with SNB-19, 0.0126 µM (active); with TK-10, 0.0347 µM (active). Besides, the values for the GI50 with U-251 and in the test on UACC-257 were 0.00822 µM (active) and 0.0181 µM (active), respectively.
`Cc1cc(NS(=O)(=O)c2ccc(Nc3c4ccccc4nc4c(C(=O)NCCO)cccc34)cc2)no1`: the GI50 in the test on A498 is 30.1 µM (inactive); in the test with A549, 37.3 µM (inactive); in the test on ACHN, 30.2 µM (inactive); with CAKI-1, 26.1 µM (inactive); in the test on DU-145, 34.7 µM (inactive); in the test on HCC 2998 it was 40.7 µM (inactive). Besides, the GI50 in the test on HL-60 is 37.9 µM (inactive); with LOX IMVI, 27.6 µM (inactive); in the test on M14, 29 µM (inactive); with MDA-MB-231 it was 17.9 µM (inactive); in the test with MDA-MB-435 it was 24.7 µM (inactive); with NCI-H522, 11.4 µM (inactive). The GI50 with OVCAR-4 is 29 µM (inactive); in the test with RPMI-8226, 19.4 µM (inactive); with SK-MEL-28, 30.3 µM (inactive); with SN12C it was 32.7 µM (inactive); in the test with SNB-19, 37.4 µM (inactive); in the test on TK-10 it was 35.6 µM (inactive). In addition, the GI50 is 27.7 µM (inactive) in the test on U-251 and 75.3 µM (inactive) in the test with UACC-257.
Consider `CC(C)CC(NC(=O)C(CCI)Cc1ccccc1)C(=O)Nc1ccccc1` (stereo not given), for which the GI50 in the test on A498 was > 100 µM (inactive); with A549, 80.9 µM (inactive); with ACHN it was 53.5 µM (inactive); with CAKI-1 it was > 100 µM (inactive); in the test on DU-145, > 100 µM (inactive); with HCC 2998, > 100 µM (inactive). For the same compound, the GI50 in the test with HL-60 was 18 µM (inactive); in the test on LOX IMVI, 33.3 µM (inactive); in the test with M14, 35.6 µM (inactive); in the test with MDA-MB-231, > 100 µM (inactive); in the test with MDA-MB-435, 58.5 µM (inactive); in the test with NCI-H522, 27.7 µM (inactive). Further, the GI50 in the test with OVCAR-4 was > 100 µM (inactive); in the test with RPMI-8226 it was 36.9 µM (inactive); in the test on SK-MEL-28, > 100 µM (inactive); in the test on SN12C it was > 100 µM (inactive); in the test with SNB-19, 98.2 µM (inactive); in the test with TK-10, 88.7 µM (inactive). The GI50 with U-251 and in the test on UACC-257 was > 100 µM (inactive) each time.
On to `CCOC(=O)/C=C(\C(=O)OCC)n1cc(C)c(=O)n(Cc2cnnn2CCCCOC(C)=O)c1=O`, for which the GI50 in the test with A498 is 22.2 µM (inactive); in the test with A549, 24.5 µM (inactive); in the test on ACHN it was 2.06 µM (inactive); in the test on CAKI-1, 3.23 µM (inactive); in the test on DU-145, > 41.7 µM (inactive); with HCC 2998 it was 21 µM (inactive). The GI50 in the test on HL-60 was 1.91 µM (inactive); with LOX IMVI it was 4.06 µM (inactive); in the test with M14, 20.9 µM (inactive); with MDA-MB-231, 22.2 µM (inactive); with MDA-MB-435 it was 7.69 µM (inactive); in the test on NCI-H522, 1.38 µM (inactive). In addition, the GI50 in the test with OVCAR-4 is 19.2 µM (inactive); in the test on RPMI-8226, 7.36 µM (inactive); in the test with SK-MEL-28 it was 7.35 µM (inactive); in the test with SN12C, 12.1 µM (inactive); with SNB-19 it was 25.4 µM (inactive); in the test on TK-10, 5.94 µM (inactive). Besides, the GI50 is 17.3 µM (inactive) with U-251 and 15.7 µM (inactive) with UACC-257.
On to `C=C(Cl)C(=C)CCC(Cl)C(C)C` (stereo not given), for which the GI50 with A498, in the test with A549, in the test on ACHN, with CAKI-1, in the test with DU-145 and in the test on HCC 2998 was > 100 µM (inactive) each time. For the same compound, the GI50 with HL-60, in the test with LOX IMVI, in the test with M14, with MDA-MB-231, in the test on MDA-MB-435 and with NCI-H522 was > 100 µM (inactive) in each case. Also, the GI50 in the test on OVCAR-4, with RPMI-8226, with SK-MEL-28, in the test with SN12C, in the test on SNB-19 and in the test on TK-10 was > 100 µM (inactive) in each case. Besides, the GI50 in the test with U-251 and in the test with UACC-257 was > 100 µM (inactive) in each case.
Take `O=C1OC[C@@H]2Cc3c([nH]c4ccccc34)[C@@H](c3ccc(O)cc3)N12`: the GI50 was 41.7 µM (inactive) with A498; 26.8 µM (inactive) in the test with A549; 23.7 µM (inactive) in the test with ACHN; 42.8 µM (inactive) in the test on CAKI-1; 40.3 µM (inactive) in the test with DU-145; 38.4 µM (inactive) in the test on HCC 2998. In addition, the GI50 with HL-60 is 45 µM (inactive); in the test on LOX IMVI it was 21 µM (inactive); in the test on M14, 23.1 µM (inactive); in the test on MDA-MB-231, 29.6 µM (inactive); in the test on MDA-MB-435, 24.7 µM (inactive); in the test with NCI-H522, 29.3 µM (inactive). The GI50 was 32.4 µM (inactive) in the test with OVCAR-4; 35.8 µM (inactive) with RPMI-8226; 54.6 µM (inactive) in the test on SK-MEL-28; 41.1 µM (inactive) in the test on SN12C; 54.2 µM (inactive) in the test on SNB-19; 34.7 µM (inactive) in the test with TK-10. Besides, the GI50 in the test on U-251 was 39.2 µM (inactive); in the test with UACC-257 it was 29.9 µM (inactive).
For `CCCCCCCCCCCCCCCC(=O)N(CCCCCCCCCCC(=O)O)CC(O)C(O)C(OC1OC(CO)C(O)C(O)C1O)C(O)CO` (stereo not given), the GI50 is > 100 µM (inactive) with A498; > 100 µM (inactive) in the test on A549; > 100 µM (inactive) in the test with ACHN; 64 µM (inactive) with CAKI-1; 91 µM (inactive) in the test on DU-145; 21.1 µM (inactive) with HCC 2998. The GI50 in the test on HL-60 is 22.6 µM (inactive); in the test on LOX IMVI, 19.5 µM (inactive); with M14, 20.7 µM (inactive); in the test with MDA-MB-231, > 100 µM (inactive); with MDA-MB-435, 49.4 µM (inactive); in the test with NCI-H522, 39.3 µM (inactive). Besides, the GI50 in the test with OVCAR-4 was 60.3 µM (inactive); in the test with RPMI-8226, 29.2 µM (inactive); with SK-MEL-28, 18.5 µM (inactive); in the test on SN12C it was 20.5 µM (inactive); in the test on SNB-19, 24.5 µM (inactive); with TK-10, > 100 µM (inactive). Also, the GI50 in the test on U-251 is 18 µM (inactive); in the test on UACC-257, 22 µM (inactive).
On to `COc1ccc(CC2NC(=O)C(NC(=O)c3c4nc5c(C(=O)NC6C(=O)NC(Cc7ccc(OC)cc7)C(=O)N7CCCC7C(=O)N(C)CC(=O)N(C)C(C(C)C)C(=O)OC6C)ccc(C)c5oc-4c(C)c(=O)c3N)C(C)OC(=O)C(C(C)C)N(C)C(=O)CN(C)C(=O)C3CCCN3C2=O)cc1` (stereo not given) (I: TY(Me)P[Sar][NMeV] / II: TY(Me)P[Sar][NMeV]; ester I:1-I:C, II:1-II:C; linker I:N-II:N via Actinocin(1to9); configuration not given here), for which the GI50 is 0.00299 µM (active) in the test on A498; < 0.001 µM (active) in the test on A549; < 0.001 µM (active) with ACHN; 0.00869 µM (active) with CAKI-1; < 0.001 µM (active) in the test with DU-145; 0.0012 µM (active) in the test on HCC 2998. For the same compound, the GI50 with HL-60 is < 0.001 µM (active); in the test with LOX IMVI it was < 0.001 µM (active); with M14, 0.00678 µM (active); in the test with MDA-MB-231, 0.0371 µM (active); with MDA-MB-435 it was < 0.001 µM (active); in the test on NCI-H522 it was < 0.001 µM (active). For the same compound, the GI50 in the test on OVCAR-4 is 0.0485 µM (active); with RPMI-8226, < 0.001 µM (active); in the test on SK-MEL-28, < 0.001 µM (active); in the test on SN12C it was < 0.001 µM (active); in the test on SNB-19, < 0.001 µM (active); in the test with TK-10 it was 0.0351 µM (active). In addition, the GI50 with U-251 and with UACC-257 was < 0.001 µM (active) each time.
